Reference: publication PMC5794925, “Expression and specificity of a chitin deacetylase from the nematophagous fungus Pochonia chlamydosporia potentially involved in pathogenicity” (Scientific Reports, 2018)

Target: T1, PcCDA catalytic domain (Pochonia chlamydosporia, UniProt A0A179FW77)
T1 construct: gene VFPPC_13269
T1 sequence (A0A179FW77 94-309): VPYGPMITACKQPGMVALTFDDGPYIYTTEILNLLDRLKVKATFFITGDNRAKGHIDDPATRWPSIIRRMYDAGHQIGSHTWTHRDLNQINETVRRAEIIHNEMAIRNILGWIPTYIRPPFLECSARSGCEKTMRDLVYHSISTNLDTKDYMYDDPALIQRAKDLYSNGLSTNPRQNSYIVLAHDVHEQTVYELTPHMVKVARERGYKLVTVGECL
Test: HPLC-MS of deacetylated products
Assay type: biochemical
Conditions: 0.2 mM substrate, 3.2 nM enzyme, 50 mM K2HPO4, 300 mM NaCl, pH 8.0, 37 °C; refolded with Zn2+

## CC(=O)N[C@H]1[C@H](O[C@H]2[C@H](O)[C@@H](NC(C)=O)C(O)O[C@@H]2CO)O[C@H](CO)[C@@H](O[C@@H]2O[C@H](CO)[C@@H](O[C@@H]3O[C@H](CO)[C@@H](O)[C@H](O)[C@H]3NC(C)=O)[C@H](O)[C@H]2NC(C)=O)[C@@H]1O (stereo partly shown) [A4, GlcNAc4]
  HPLC-MS of deacetylated products: With the A4 substrate, the enzyme was also active but slower than with the A5
